The record followed here is ChEMBL document CHEMBL4229414, “Design and synthesis of bridged piperidine and piperazine isosteres” (Bioorg Med Chem Lett, 2018).

Series [1] is described as follows: Stability in rat microsomes. Note: time not given here. The format is ADME, Microsome.
Series [2] addresses D(2) dopamine receptor (Homo sapiens) (UniProt P14416). Nature of the series: Agonist activity at human D2L receptor expressed in CHOK1 cells assessed as inhibition of receptor response at 0.1 uM by calcium flux assay relative to control. The format is functional, cell-based. (In general: Calcium assays in cells follow changes in intracellular calcium, usually with a dye or a luminescent sensor.)

Series [3] deals with T1, hERG (KCNH2) (Homo sapiens, UniProt Q12809). The experiment in a line: Inhibition of human ERG at 1 uM relative to control.
T1 sequence (Q12809 whole entry): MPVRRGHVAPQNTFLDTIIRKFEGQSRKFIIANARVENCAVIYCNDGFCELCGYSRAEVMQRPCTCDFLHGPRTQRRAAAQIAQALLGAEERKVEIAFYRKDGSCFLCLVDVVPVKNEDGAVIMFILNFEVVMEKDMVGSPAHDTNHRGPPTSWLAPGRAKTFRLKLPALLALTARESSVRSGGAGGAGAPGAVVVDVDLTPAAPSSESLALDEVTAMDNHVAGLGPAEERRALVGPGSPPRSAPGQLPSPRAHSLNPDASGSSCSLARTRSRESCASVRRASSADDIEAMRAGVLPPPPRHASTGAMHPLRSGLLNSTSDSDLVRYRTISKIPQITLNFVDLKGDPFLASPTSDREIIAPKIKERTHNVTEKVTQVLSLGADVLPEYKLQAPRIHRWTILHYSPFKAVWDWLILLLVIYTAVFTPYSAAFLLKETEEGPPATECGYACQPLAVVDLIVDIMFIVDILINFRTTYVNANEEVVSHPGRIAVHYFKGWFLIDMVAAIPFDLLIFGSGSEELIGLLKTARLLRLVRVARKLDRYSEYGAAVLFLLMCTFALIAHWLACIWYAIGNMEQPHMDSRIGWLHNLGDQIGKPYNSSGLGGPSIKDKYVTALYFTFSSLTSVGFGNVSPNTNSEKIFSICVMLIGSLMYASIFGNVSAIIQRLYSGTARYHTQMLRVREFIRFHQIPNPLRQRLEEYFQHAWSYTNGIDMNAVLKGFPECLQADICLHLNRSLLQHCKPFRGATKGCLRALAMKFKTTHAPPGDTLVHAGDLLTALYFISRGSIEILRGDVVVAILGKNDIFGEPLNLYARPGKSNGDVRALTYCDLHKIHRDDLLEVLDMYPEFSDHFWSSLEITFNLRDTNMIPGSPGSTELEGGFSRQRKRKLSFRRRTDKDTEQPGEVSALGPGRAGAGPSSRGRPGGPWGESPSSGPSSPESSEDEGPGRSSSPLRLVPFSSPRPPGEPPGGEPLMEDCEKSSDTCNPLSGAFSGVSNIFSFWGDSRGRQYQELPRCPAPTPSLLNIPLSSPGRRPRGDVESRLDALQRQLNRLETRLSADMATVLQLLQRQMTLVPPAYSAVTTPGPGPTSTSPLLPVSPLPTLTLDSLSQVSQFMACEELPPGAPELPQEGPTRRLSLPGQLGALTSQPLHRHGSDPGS
Series [4] in a line: Stability in mouse microsomes. Note: time not given here. The format is ADME, Microsome.
Series [5] in a line: Passive permeability in human Caco2 cells. The format is ADME, cell-based. Particulars: caco-2.
Series [6] addresses T1, hERG (KCNH2). Nature of the series: Inhibition of human ERG at 10 uM relative to control.
In series [7] the target is D(2) dopamine receptor (Homo sapiens) (UniProt P14416). Nature of the series: Agonist activity at human D2L receptor expressed in CHOK1 cells assessed as inhibition of receptor response at 10 uM by calcium flux assay relative to control. The format is functional, cell-based.
Sequence of D(2) dopamine receptor (Homo sapiens) (P14416 whole entry): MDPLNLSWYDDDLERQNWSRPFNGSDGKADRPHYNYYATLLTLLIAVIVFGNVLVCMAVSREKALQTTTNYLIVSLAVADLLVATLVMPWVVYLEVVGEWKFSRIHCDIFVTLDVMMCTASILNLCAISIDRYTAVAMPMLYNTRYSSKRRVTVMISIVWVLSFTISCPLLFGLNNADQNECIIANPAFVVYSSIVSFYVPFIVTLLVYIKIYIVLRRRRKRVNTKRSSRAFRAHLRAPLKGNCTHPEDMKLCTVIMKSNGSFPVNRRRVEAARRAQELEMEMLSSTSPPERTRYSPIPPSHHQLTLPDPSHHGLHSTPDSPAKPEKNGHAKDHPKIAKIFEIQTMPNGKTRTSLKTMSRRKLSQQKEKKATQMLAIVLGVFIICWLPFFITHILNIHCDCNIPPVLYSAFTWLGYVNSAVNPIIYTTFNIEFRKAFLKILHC
The nature of series [8]: Stability in human microsomes. Note: time not given here. The format is ADME, Microsome.
Series [9] can be described thus: Efflux ratio of permeability in human Caco2 cells. The format is ADME, cell-based. As to conditions: caco-2. (Caco-2 cells form a polarised layer with tight junctions and transporters.)
Series [10] addresses T1, hERG (KCNH2). Nature of the series: Inhibition of human ERG at 3 uM relative to control.
Series [11] addresses D(2) dopamine receptor (Homo sapiens) (UniProt P14416). Nature of the series: Antagonist activity at human D2L receptor expressed in CHOK1 cells assessed as inhibition of dopamine-induced calcium flux at 10 uM by fluorescence assay relative to control. The format is functional, cell-based.
For series [12], the species on record is Homo sapiens. The experiment in a line: Agonist activity at recombinant human D4.4 expressed in CHOK1 cells assessed as inhibition of receptor response at 10 uM by HTRF based cAMP assay relative to control. The format is cell-based. A general note: In TR-FRET formats the signal depends on donor and acceptor labels being close together.
The species named for series [13] is Homo sapiens. Nature of the series: Agonist activity at recombinant human D4.4 expressed in CHOK1 cells assessed as inhibition of receptor response at 0.1 uM by HTRF based cAMP assay relative to control. The format is cell-based.
In series [14] the target is D(2) dopamine receptor (Homo sapiens) (UniProt P14416). Nature of the series: Antagonist activity at human D2L receptor expressed in CHOK1 cells assessed as inhibition of dopamine-induced calcium flux at 0.1 uM by fluorescence assay relative to control. The format is functional, cell-based.

`CCCN1C[C@H]2OC[C@@H]1C[C@@H]2c1ccccc1OC`: the Stability in [1] stood at 3%; in series [4], 4%; in series [8], 100%. Besides, the inhibition – broadly, the drop in the measured response relative to a control, in per cent – in [2] amounted to 25%; in [7], 16%. Besides, the inhibition at 1 µM in [3] is 0%. The permeability in series [5] turned out to be 100%. Also, the inhibition at 10 µM in series [6] was found to be 15%. The efflux ratio – broadly, a quotient of directional permeabilities that is used to spot active efflux – in [9] was determined as 0.8. For the same compound, the inhibition at 3 µM in [10] amounted to 3%.
As to `CCCN1C[C@H]2OC[C@@H]1C[C@]2(O)c1ccccc1OC`, the figures for the Stability in [1], in series [4] and in series [8] were 15%, 55% and 100%, respectively. The inhibition was 16% in series [11]; 6% in series [2]; -6% in series [12]; 3% in [7]; 6% in series [13]; 12% in series [14]. In [3], the inhibition at 1 µM stood at 4%. In addition, the permeability in series [5] was 100%. The inhibition at 10 µM in series [6] turned out to be 14%. For the same compound, the efflux ratio in series [9] turned out to be 0.6. Besides, the inhibition at 3 µM in [10] stood at 5%.
As for `CCCN1[C@H]2CC[C@H]1CC(c1ccccc1OC)C2` (relative stereo; 4), the inhibition came out at 22% in series [11]; 8% in series [2]; 11% in series [12]; 0% in series [7]; 10% in [13]; 19% in [14].
With `CCCN1[C@H]2CC[C@H]1CC(c1cc(OC)c(OC)c(OC)c1)C2` (relative stereo), the Stability in series [1] is given as 4%; in series [4], 5%; in [8], 100%. The inhibition in series [11] was 8%; in series [2] it was 0%; in series [12], -1%; in [7] it was 4%; in series [14], 12%. The inhibition at 1 µM in series [3] was 20%. The same compound gave a permeability in [5] of 99%. For the same compound, the inhibition at 10 µM in [6] amounted to 66%. Moreover, the efflux ratio in series [9] worked out at 5.6. Also, in series [10], the inhibition at 3 µM was 40%.
With `CCCN1CCN(c2ccccc2OC)CC1`, the Stability in series [1] came to 2%; in series [4], 2%; in series [8], 63%. For the same compound, the inhibition in series [11] is -1%; in series [2] it was 50%; in series [12] it was 12%; in series [7] it was 99%; in series [13] it was 9%. In addition, in [3], the inhibition at 1 µM was 8%. In addition, the permeability in series [5] is 100%. Moreover, the inhibition at 10 µM in series [6] was determined as 41%. The efflux ratio in [9] turned out to be 1.1. In [10], the inhibition at 3 µM is 16%.
With `CCCN1[C@H]2COC[C@H]1CC(c1ccccc1OC)C2` (relative stereo; 20), the inhibition in [11] stood at 12%; in series [2], 22%; in series [7] it was 30%; in series [13], 14%; in series [14], 10%.
The corresponding values for `CCCN1[C@H]2CC[C@H]1CC(c1ccccc1OC)C2` (relative stereo; 8a) are 29%, 2%, 35%, -3% and 14%.
`CCCN1[C@H]2CC[C@H]1CC(O)(c1ccccc1OC)C2` (relative stereo): the Stability in [1] stood at 12%; in [4] it was 54%; in series [8], 100%. The inhibition at 1 µM in [3] stood at 7%. The compound also had a permeability in series [5] of 100%. Further, the inhibition at 10 µM in series [6] was 46%. In addition, the inhibition in series [7] is -8%. Moreover, the efflux ratio in series [9] was determined as 1.2. Also, in series [10], the inhibition at 3 µM came to 19%.
For the compound `CCCN1[C@H]2COC[C@H]1CC(c1ccccc1OC)C2` (relative stereo; 16), the inhibition stood at 34% in series [11]; 4% in series [2]; 20% in series [12]; 11% in series [7]; 3% in series [13]; 21% in series [14].
